{"source": "paper PMC9511441", "about": "“Semisynthetic teicoplanin derivatives with dual antimicrobial activity against SARS-CoV-2 and multiresistant bacteria” (Scientific Reports, 2022)", "key": {"[1]": {"tested_on": "HCoV-229E", "test": "CPE reduction assay, HCoV-229E in HEL cells", "format": "cell-based", "conditions": "Human coronavirus 229E, MTS, mean of 2–3 tests"}, "[2]": {"test": "Cytotoxicity in mock-infected HEL cells (MTS)", "format": "cell-based, human", "conditions": "human"}, "[3]": {"tested_on": "SARS-CoV-2", "test": "microbe, parasite or virus in culture", "format": "cell-based", "conditions": "Severe acute respiratory syndrome coronavirus 2, 72 h; Calu-3 cells, three days, XTT; read-out: EC50, CPE reduction, SARS-CoV-2 in Calu-3 cells"}, "[4]": {"tested_on": "SARS-CoV-2", "test": "microbe, parasite or virus in culture", "format": "cell-based", "conditions": "Severe acute respiratory syndrome coronavirus 2, Vero C1008, 72 h; Vero E6 cells, three days, XTT; read-out: EC50, CPE reduction, SARS-CoV-2 in Vero E6 cells"}, "[5]": {"test": "in vitro", "conditions": "human"}, "[6]": {"test": "Cytotoxicity in mock-infected VeroE6 cells (XTT)", "format": "cell-based, African green monkey", "conditions": "African green monkey; mock-infected Vero E6 cells, three days, XTT"}, "[7]": {"tested_on": "S. epidermidis", "test": "microbe, parasite or virus in culture", "format": "cell-based", "conditions": "Staphylococcus epidermidis", "source_text": "(§1) We determined the minimal inhibitory concentrations (MIC) of the teicoplanin conjugates for a large panel of Gram-positive bacterial strains, using vancomycin, unmodified teicoplanin, dalbavancin and oritavancin as reference compounds. […] The bacterial strains (see Suppl. Table S5 for all details) were selected to achieve maximum diversity of multidrug-resistance and include strains with known mechanisms of resistance to glycopeptides in clinical use. The S. epidermidis and S. haemolyticus strains resistant to dalbavancin and oritavancin were obtained in vitro from clinical isolates sensitive to the glycopeptide antibiotics."}, "[8]": {"tested_on": "E. faecium", "test": "microbe, parasite or virus in culture", "format": "cell-based", "conditions": "Enterococcus faecium", "source_text": "as §1"}, "[9]": {"tested_on": "S.pyogenes", "test": "MIC, broth microdilution", "format": "cell-based", "conditions": "Streptococcus pyogenes", "source_text": "as §1"}, "[10]": {"tested_on": "S. haemolyticus", "test": "MIC, broth microdilution", "format": "cell-based", "conditions": "Staphylococcus haemolyticus", "source_text": "as §1"}, "[11]": {"tested_on": "E. faecalis", "test": "MIC, broth microdilution", "format": "cell-based", "conditions": "Enterococcus faecalis", "source_text": "as §1"}, "[12]": {"tested_on": "S. aureus", "test": "MIC, broth microdilution", "format": "cell-based", "conditions": "Staphylococcus aureus", "source_text": "as §1"}, "[13]": {"tested_on": "S. aureus ATCC29213", "test": "Fluorescent competition assay, release of fluorescent vancomycin", "conditions": "cells saturated with FL-VAN, Fig. 7 left panel"}}, "note": "Where two headings read alike, the source gives them in different places.", "data": [{"compound": "N#C[C@@]1(c2ccc3c(N)ncnn23)O[C@H](CO)[C@@H](O)[C@H]1O", "note": "[GS-441524, reference compound]", "values": [{"measurement": "EC50", "setting": "[1]", "result": 3000, "unit": "nM"}, {"measurement": "CC50 at 5 days", "setting": "[2]", "result": "> 40000", "unit": "nM"}]}, {"compound": "CCC(CC)COC(=O)[C@H](C)N[P@](=O)(OC[C@H]1O[C@@](C#N)(c2ccc3c(N)ncnn23)[C@H](O)[C@@H]1O)Oc1ccccc1", "note": "[Remdesivir, remdesivir, reference compound]", "values": [{"measurement": "EC50", "setting": "[3]", "result": "300 ± 30", "unit": "nM"}, {"measurement": "EC50", "setting": "[4]", "result": "2500 ± 200", "unit": "nM"}, {"measurement": "CC50", "setting": "[5]", "result": "> 50000", "unit": "nM"}, {"measurement": "CC50", "setting": "[6]", "result": "> 100000", "unit": "nM"}]}, {"compound": "CN[C@H](CC(C)C)C(=O)N[C@H]1C(=O)N[C@@H](CC(N)=O)C(=O)N[C@H]2C(=O)N[C@H]3C(=O)N[C@H](C(=O)N[C@H](C(=O)O)c4cc(O)cc(O)c4-c4cc3ccc4O)[C@H](O[C@H]3C[C@](C)(N)[C@@H](O)[C@H](C)O3)c3ccc(c(Cl)c3)Oc3cc2cc(c3O[C@@H]2O[C@H](CO)[C@@H](O)[C@H](O)[C@H]2O[C@H]2C[C@](C)(NCc3ccc(-c4ccc(Cl)cc4)cc3)[C@@H](O)[C@H](C)O2)Oc2ccc(cc2Cl)[C@H]1O", "note": "[ORI, oritavancin, reference compound]", "values": [{"measurement": "MIC", "setting": "[7]; read-out: Average MIC value, S. epidermidis mecA, 6 strains", "result": 1.2, "unit": "µg/mL"}, {"measurement": "MIC", "setting": "[7]; read-out: MIC value, S.epidermidis ORI_R1, mecA", "result": 4, "unit": "µg/mL"}, {"measurement": "MIC", "setting": "[7]; read-out: MIC value, S.epidermidis ORI_R2, mecA", "result": 0.5, "unit": "µg/mL"}, {"measurement": "MIC", "setting": "[7]; read-out: MIC value, S.epidermidis ORI_R3, mecA", "result": 2, "unit": "µg/mL"}, {"measurement": "MIC", "setting": "[7]; read-out: MIC value, S.epidermidis ORI_R4, mecA", "result": 0.5, "unit": "µg/mL"}, {"measurement": "MIC", "setting": "[7]; read-out: MIC value, S.epidermidis TEI_R1, mecA", "result": 0.125, "unit": "µg/mL"}, {"measurement": "MIC", "setting": "[7]; read-out: MIC value, S.epidermidis TEI_R2, mecA", "result": 0.125, "unit": "µg/mL"}, {"measurement": "MIC", "setting": "[8]; read-out: Average MIC value, E. faecium VAN^R,TEI^R/VanA, 8 strains", "result": 0.12, "unit": "µg/mL"}, {"measurement": "MIC", "setting": "[8]; read-out: Average MIC value, E. faecium VAN^S, TEI^S, 1 strain", "result": 0.0625, "unit": "µg/mL"}, {"measurement": "MIC", "setting": "[8]; read-out: MIC value, E.faecium E335, VAN,TEI,LNZ/VanA", "result": 0.125, "unit": "µg/mL"}, {"measurement": "MIC", "setting": "[8]; read-out: MIC value, E.faecium E355, VAN,TEI,LNZ/VanA", "result": 0.0625, "unit": "µg/mL"}, {"measurement": "MIC", "setting": "[8]; read-out: MIC value, E.faecium E832, VAN,TEI,LNZ/VanA", "result": 0.125, "unit": "µg/mL"}, {"measurement": "MIC", "setting": "[8]; read-out: MIC value, E.faecium E854, VAN,TEI,LNZ/VanA", "result": 0.0625, "unit": "µg/mL"}, {"measurement": "MIC", "setting": "[8]; read-out: MIC value, E.faecium E859, VAN,TEI,LNZ/VanA", "result": 0.0625, "unit": "µg/mL"}, {"measurement": "MIC", "setting": "[8]; read-out: MIC value, E.faecium E1114, VAN,TEI,LNZ/VanA", "result": 0.25, "unit": "µg/mL"}, {"measurement": "MIC", "setting": "[8]; read-out: MIC value, E.faecium E1131, VAN,TEI,LNZ/VanA", "result": 0.125, "unit": "µg/mL"}, {"measurement": "MIC", "setting": "[8]; read-out: MIC value, E.faecium E1132, VAN,TEI,LNZ/VanA", "result": 0.125, "unit": "µg/mL"}, {"measurement": "MIC", "setting": "[8]; read-out: MIC value, E.faecium TX0016", "result": 0.0625, "unit": "µg/mL"}, {"measurement": "MIC", "setting": "[9]; read-out: MIC value, S.pyogenes H232", "result": 0.125, "unit": "µg/mL"}, {"measurement": "MIC", "setting": "[9]; read-out: MIC value, S.pyogenes H550", "result": 0.0625, "unit": "µg/mL"}, {"measurement": "MIC", "setting": "[9]; read-out: MIC value, S.pyogenes H578", "result": 0.0625, "unit": "µg/mL"}, {"measurement": "MIC", "setting": "[10]; S. haemolyticus mecA, 6 strains, read-out: Average MIC value", "result": 0.24, "unit": "µg/mL"}, {"measurement": "MIC", "setting": "[10]; S.haemolyticus DALB_R1, mecA, read-out: MIC value", "result": 0.25, "unit": "µg/mL"}, {"measurement": "MIC", "setting": "[10]; S.haemolyticus DALB_R2, mecA, read-out: MIC value", "result": 0.25, "unit": "µg/mL"}, {"measurement": "MIC", "setting": "[10]; S.haemolyticus DALB_R3, mecA, read-out: MIC value", "result": 0.25, "unit": "µg/mL"}, {"measurement": "MIC", "setting": "[10]; S.haemolyticus DALB_R4, mecA, read-out: MIC value", "result": 0.0625, "unit": "µg/mL"}, {"measurement": "MIC", "setting": "[10]; S.haemolyticus DALB_R5, mecA, read-out: MIC value", "result": 0.125, "unit": "µg/mL"}, {"measurement": "MIC", "setting": "[10]; S.haemolyticus ORI_R1, mecA, read-out: MIC value", "result": 0.5, "unit": "µg/mL"}, {"measurement": "MIC", "setting": "[11]; read-out: Average MIC value, E. faecalis VAN^R,TEI^R/VanA, 1 strain", "result": 0.125, "unit": "µg/mL"}, {"measurement": "MIC", "setting": "[11]; read-out: Average MIC value, E. faecalis VAN^S, TEI^S, 2 strains", "result": 0.0625, "unit": "µg/mL"}, {"measurement": "MIC", "setting": "[11]; read-out: MIC value, E.faecalis JH2-2", "result": 0.0625, "unit": "µg/mL"}, {"measurement": "MIC", "setting": "[11]; read-out: MIC value, E.faecalis OG1RF", "result": 0.0625, "unit": "µg/mL"}, {"measurement": "MIC", "setting": "[11]; read-out: MIC value, E.faecalis V583, VAN,TEI/VanA", "result": 0.125, "unit": "µg/mL"}, {"measurement": "MIC", "setting": "[12]; ATCC 29213 / MSSA, read-out: MIC value, S. aureus ATCC29213, MSSA", "result": 0.125, "unit": "µg/mL"}, {"measurement": "MIC", "setting": "[12]; MRSA / USA300, read-out: MIC value, S. aureus USA300, CA-MRSA", "result": 0.0625, "unit": "µg/mL"}, {"measurement": "MIC", "setting": "[12]; MRSA, read-out: Average MIC value, S. aureus CA-MRSA, 1 strain", "result": 0.0625, "unit": "µg/mL"}, {"measurement": "MIC", "setting": "[12]; MRSA, read-out: Average MIC value, S. aureus MRSA, 7 strains", "result": 0.14, "unit": "µg/mL"}, {"measurement": "MIC", "setting": "[12]; MRSA, read-out: MIC value, S. aureus 73OL, MRSA", "result": 0.125, "unit": "µg/mL"}, {"measurement": "MIC", "setting": "[12]; MRSA, read-out: MIC value, S. aureus 214OL, MRSA", "result": 0.125, "unit": "µg/mL"}, {"measurement": "MIC", "setting": "[12]; MRSA, read-out: MIC value, S. aureus 1041OL, MRSA", "result": 0.125, "unit": "µg/mL"}, {"measurement": "MIC", "setting": "[12]; MRSA, read-out: MIC value, S. aureus A6918, MRSA", "result": 0.125, "unit": "µg/mL"}, {"measurement": "MIC", "setting": "[12]; MRSA, read-out: MIC value, S. aureus A6919, MRSA", "result": 0.125, "unit": "µg/mL"}, {"measurement": "MIC", "setting": "[12]; MRSA, read-out: MIC value, S. aureus Mu50, MRSA", "result": 0.25, "unit": "µg/mL"}, {"measurement": "MIC", "setting": "[12]; MRSA, read-out: MIC value, S. aureus N315, MRSA", "result": 0.125, "unit": "µg/mL"}, {"measurement": "MIC", "setting": "[12]; MSSA / NEWMAN, read-out: MIC value, S. aureus Newman, MSSA", "result": 0.0625, "unit": "µg/mL"}, {"measurement": "MIC", "setting": "[12]; MSSA, read-out: Average MIC value, S. aureus MSSA, 4 strains", "result": 0.078, "unit": "µg/mL"}, {"measurement": "MIC", "setting": "[12]; MSSA, read-out: MIC value, S. aureus MSSA476, MSSA", "result": 0.0625, "unit": "µg/mL"}, {"measurement": "MIC", "setting": "[12]; MSSA, read-out: MIC value, S. aureus SA564, MSSA", "result": 0.0625, "unit": "µg/mL"}, {"measurement": "Outcompeting fluorescent vancomycin from S. aureus (in words)", "setting": "[13]", "result": "less pronounced"}]}]}
